Values quoted from earlier work, collected in patent publication US20210386741A1, “FORMULATIONS OF IBRUTINIB” (Zhuhai Beihai Biotech Co., Ltd., priority 2016, published 2021).

Columns and labels:
[1] = oral
human plasma protein = details: in vitro, no concentration dependence in the range of 50 to 1000 ng/mL

- Absolute bioavailability ([1]; fasted condition (n=8), 90% CI=2.1−3.9): 2.9%
- change of absolute bioavailability when combined with a meal ([1]; with a meal versus fasted): doubled
- increase of AUC on administration with food ([1]; with food compared with after overnight fasting): approximately 2 fold
- reversible binding to human plasma protein (human plasma protein): 97.3%
- solubility in water: practically insoluble in water
Compound: C=CC(=O)N1CCC[C@@H](n2nc(-c3ccc(Oc4ccccc4)cc3)c3c(N)ncnc32)C1 [ibrutinib]
